Columns and labels:
glucose dehydrogenase [1] = biological target: T1, glucose dehydrogenase (Priestia megaterium, UniProt P07999); assay: Kinetic glucose determination with glucose-dehydrogenase, Example 4 (1.8 U enzyme); type: biochemical
Source text: (§1) The following test mixture was used:
0.12 mole phosphate buffer pH = 7.6
40 millimoles sulfosalicylic acid
0.86 millimole - 2.59 millimoles glucose
1.8 U glucose-dehydrogenase

uricase [2] = biological target: T2, uricase (Sus scrofa, UniProt P16164); assay: Kinetic uric acid determination with uricase, average inhibition (Table 4); type: biochemical
T2 sequence (P16164 2-304 limits assumed): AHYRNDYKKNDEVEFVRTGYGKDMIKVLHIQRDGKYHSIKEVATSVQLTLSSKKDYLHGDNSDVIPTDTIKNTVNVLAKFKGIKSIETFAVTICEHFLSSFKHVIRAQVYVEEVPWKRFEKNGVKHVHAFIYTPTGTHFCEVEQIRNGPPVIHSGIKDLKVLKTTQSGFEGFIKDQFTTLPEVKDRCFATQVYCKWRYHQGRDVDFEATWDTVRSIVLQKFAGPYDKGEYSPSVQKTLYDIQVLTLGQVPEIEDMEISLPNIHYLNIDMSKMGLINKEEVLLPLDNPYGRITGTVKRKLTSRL
Source text: (§2) The exclusion of the interference of foreign inhibitors that can be achieved by the invention is illustrated by the measurements obtained for two different enzymes and two different inhibitors each, which are listed in the following two tables.

[3] = biological target: uricase (prepared from swine liver) (Sus scrofa, UniProt P16164)
Experimental: Recording is started 20 seconds after initiation of the reaction: paper speed 2 cm/min, spread 20 cm for E=0-1. With an angle measuring means, the angle α formed with the time axis is measured at the beginning of each recording. The reciprocals of tan α are plotted as ordinates against the corresponding reciprocal uric acid concentrations (Lineweaver-Burk diagram). The calibration straight line is drawn through the points obtained with and without the addition of potassium thiocyanate.
For the determination of the apparent Michaelis constant, the reciprocals of the tangent α are plotted as ordinates, and the reciprocal molar substrate concentrations in the test mixture as abscissae. The apparent Michaelis constant is found as a negative reciprocal of the abscissae intersections of the straight lines of regression (insertion of suitable small values for 1/cS followed by graphic evaluation).

glucose dehydrogenase [4] = biological target: T1, glucose dehydrogenase; details: Lineweaver-Burk diagram, FIG. 1; 330 and 500 mmoles KSCN per liter of test solution
Experimental: The reaction was started by the admixture of 20 μl of 200 mmoles/l NAD^+, and recording was begun 10 seconds later: paper feed 5 cm/min, spread 20 cm for E = 0 - 1.
For the determination of the angle α with the axis of time the virtually linear initial area of the recording was evaluated; for the determination of the type of inhibitor, the reciprocals of tangent α (identical with the initial rate, for practical purposes) were plotted as ordinates and the reciprocals of the millimolar glucose concentrations used in the test were plotted as abscissae (Lineweaver-Burk diagram).
20 μl of specimen was incubated in the cell at 25°C with 500 μl of stabilized buffer-enzyme-inhibitor mixture and the reaction was started by the admixture of 20 μl NAD^+ (150 mg/ml H2 O). 20 seconds after the start of the reaction, recording was performed at a paper feed of 5 cm/min at Hg 366 nm, and the layer thickness 1.00 cm, and the angle α was determined 20 seconds after the start of the reaction in each case.

uricase [5] = biological target: T2, uricase; assay: Inhibition of Uricase, Example 6; type: biochemical
Source text: as §1
96 mmoles borate buffer pH = 9.5
114 - 7.6 μmoles uric acid

GlucDH = GlucDH (Priestia megaterium, UniProt P07999); assay: Kinetic glucose determination with GlucDH, average inhibition (Table 3); type: biochemical
Source text: as §2

glucose dehydrogenase [6] = biological target: T1, glucose dehydrogenase; assay: Kinetic glucose determination with glucose-dehydrogenase, Example 5 (95 mU enzyme); type: biochemical
Source text: as §1
90 mmoles phosphate buffer pH = 7.6
40 mmoles sulfosalicylic acid
95 mU glucose dehydrogenase

[7] = biological target: uricase obtained from swine liver (Sus scrofa, UniProt P16164); details: read-out: Michaelis constant of uricase, Tiffany et al., Anal. Chem. 45, 1716-23 (1973); cited from earlier work
[8] = 0.31 mole KSCN, glucose [S] 0.86 mmoles
[9] = 0.31 mole KSCN, glucose [S] 1.29 mmoles
[10] = 0.31 mole KSCN, glucose [S] 1.72 mmoles
[11] = 0.31 mole KSCN, glucose [S] 2.59 mmoles
[12] = 38.5 mmoles KSCN, glucose [S] 0.86 mmoles
[13] = 38.5 mmoles KSCN, glucose [S] 1.29 mmoles
[14] = 38.5 mmoles KSCN, glucose [S] 1.72 mmoles
[15] = 38.5 mmoles KSCN, glucose [S] 2.59 mmoles
[16] = 38.5 mmoles KSCN, glucose [S] 3.45 mmoles
[17] = 1.4 nmoles phloretin, glucose [S] 0.86 mmoles
[18] = 1.4 nmoles phloretin, glucose [S] 1.29 mmoles
[19] = 1.4 nmoles phloretin, glucose [S] 1.72 mmoles
[20] = 1.4 nmoles phloretin, glucose [S] 2.59 mmoles
[21] = 14 nmoles phloretin, glucose [S] 0.86 mmoles
[22] = 14 nmoles phloretin, glucose [S] 1.29 mmoles
[23] = 14 nmoles phloretin, glucose [S] 1.72 mmoles
[24] = 14 nmoles phloretin, glucose [S] 2.59 mmoles
[25] = 14 nmoles phloretin, glucose [S] 3.45 mmoles
[26] = 0.02 mmole xanthine, [S] 7.6 μmole
[27] = 0.02 mmole xanthine, [S] 38 μmole
[28] = 0.02 mmole xanthine, [S] 114 μmole

Sequence of GlucDH (P07999 whole entry): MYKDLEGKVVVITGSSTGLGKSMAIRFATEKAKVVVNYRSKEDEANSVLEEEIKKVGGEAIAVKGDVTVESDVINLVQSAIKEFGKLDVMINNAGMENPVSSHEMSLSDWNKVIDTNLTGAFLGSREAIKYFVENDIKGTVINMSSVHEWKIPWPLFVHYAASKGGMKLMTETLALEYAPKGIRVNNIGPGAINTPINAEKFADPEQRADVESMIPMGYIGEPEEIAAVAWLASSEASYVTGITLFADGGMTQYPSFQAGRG
T1 sequence (P07999 whole entry): as above

N#CS [KSCN, Potassium thiocyanate]
% inh. (glucose dehydrogenase [1]; [8]): 85.5% | ΔE/min (glucose dehydrogenase [1]; [8]): 4.5 | % inh. (glucose dehydrogenase [1]; [9]): 80.3% | ΔE/min (glucose dehydrogenase [1]; [9]): 8.0 | % inh. (glucose dehydrogenase [1]; [10]): 80.6% | ΔE/min (glucose dehydrogenase [1]; [10]): 10.5 | % inh. (glucose dehydrogenase [1]; [11]): 77.5% | ΔE/min (glucose dehydrogenase [1]; [11]): 17 | Average inhibition in % (uricase [2]; KSCN 10 millimoles): 17% | Average inhibition in % (uricase [2]; KSCN 40 millimoles): 41% | Average inhibition in % (uricase [2]; KSCN 500 millimoles): 82% | apparent Michaelis constant ([3]; 687 mmoles per liter of test solution, uric acid as substrate, 25°C): 1 mmol/L | type of inhibitor ([3]; Lineweaver-Burk plot, same ordinate intersection): competitive inhibitor | type of inhibitor (glucose dehydrogenase [4]): competitive type of inhibitor | % inh. (uricase [5]; 0.5 mole KSCN, [S] 7.6 μmole): 86% | ΔE/min (uricase [5]; 0.5 mole KSCN, [S] 7.6 μmole): 3.3 | % inh. (uricase [5]; 0.5 mole KSCN, [S] 38 μmole): 81% | ΔE/min (uricase [5]; 0.5 mole KSCN, [S] 38 μmole): 16.3 | % inh. (uricase [5]; 0.5 mole KSCN, [S] 114 μmole): 73% | ΔE/min (uricase [5]; 0.5 mole KSCN, [S] 114 μmole): 46 | Average inhibition in % (GlucDH; KSCN 38.5 millimoles): 17% | Average inhibition in % (GlucDH; KSCN 310 millimoles): 78% | % inh. (glucose dehydrogenase [6]; [12]): 17% | ΔE/min (glucose dehydrogenase [6]; [12]): 28.0 | % inh. (glucose dehydrogenase [6]; [13]): 18.8% | ΔE/min (glucose dehydrogenase [6]; [13]): 40.3 | % inh. (glucose dehydrogenase [6]; [14]): 21.69% | ΔE/min (glucose dehydrogenase [6]; [14]): 49.7 | % inh. (glucose dehydrogenase [6]; [15]): 8% | ΔE/min (glucose dehydrogenase [6]; [15]): 72.3 | % inh. (glucose dehydrogenase [6]; [16]): 17% | ΔE/min (glucose dehydrogenase [6]; [16]): 90

O=C(CCc1ccc(O)cc1)c1c(O)cc(O)cc1O [Phloretin, phloretin]
% inh. (glucose dehydrogenase [1]; [17]): 22.8% | ΔE/min (glucose dehydrogenase [1]; [17]): 24.0 | % inh. (glucose dehydrogenase [1]; [18]): 26.0% | ΔE/min (glucose dehydrogenase [1]; [18]): 30.0 | % inh. (glucose dehydrogenase [1]; [19]): 15.8% | ΔE/min (glucose dehydrogenase [1]; [19]): 45.5 | % inh. (glucose dehydrogenase [1]; [20]): 17.1% | ΔE/min (glucose dehydrogenase [1]; [20]): 62.5 | Average inhibition in % (GlucDH; Phloretin 1.4 micromoles): 20% | Average inhibition in % (GlucDH; Phloretin 14 micromoles): 76% | % inh. (glucose dehydrogenase [6]; [21]): 74% | ΔE/min (glucose dehydrogenase [6]; [21]): 8.7 | % inh. (glucose dehydrogenase [6]; [22]): 77% | ΔE/min (glucose dehydrogenase [6]; [22]): 11.3 | % inh. (glucose dehydrogenase [6]; [23]): 78% | ΔE/min (glucose dehydrogenase [6]; [23]): 14.0 | % inh. (glucose dehydrogenase [6]; [24]): 76% | ΔE/min (glucose dehydrogenase [6]; [24]): 20.3 | % inh. (glucose dehydrogenase [6]; [25]): 75% | ΔE/min (glucose dehydrogenase [6]; [25]): 26.7

O=c1[nH]c(=O)c2[nH]cnc2[nH]1 [Xanthine, xanthine]
Average inhibition in % (uricase [2]; Xanthine 20 micromoles): 34% | Average inhibition in % (uricase [2]; Xanthine 40 micromoles): 60% | Average inhibition in % (uricase [2]; Xanthine 80 micromoles): 76% | % inh. (uricase [5]; [26]): 49% | ΔE/min (uricase [5]; [26]): 14 | % inh. (uricase [5]; [27]): 25% | ΔE/min (uricase [5]; [27]): 66 | % inh. (uricase [5]; [28]): 26% | ΔE/min (uricase [5]; [28]): 127

O=c1[nH]c(=O)c2[nH]c(=O)[nH]c2[nH]1 [uric acid]
Km [7]: 17 µM
